Reference: US20040219201A1, “Tempamine compositions and methods of use” (priority 2001, published 2004)

Tests used:
[1] = Percent encapsulation of tempamine in liposomes (EPR); format: physicochemical; settings: 0.2 mM TMN
Procedure: The amount of tempamine encapsulated in the liposomes was determined using EPR, as described in Example 3.
EPR spectrometry was employed to detect tempamine concentration using a JES-RE3X EPR spectrometer (JEOL Co., Japan) (Fuchs, J., et al., Free Radic. Biol. Med. 22:967-976, (1997)). Samples were drawn by a syringe into a gas-permeable Teflon capillary tube of 0.81 mm i.d. and 0.05 mm wall thickness (Zeus Industrial Products, Raritan, N.J., USA). The capillary tube was inserted into a 2.5-mm-i.d. quartz tube open at both ends, and placed in the EPR cavity. EPR spectra were recorded with center field set at 329 mT, 100 kHz modulation frequency, 0.1 mT modulation amplitude, and nonsaturating microwave power. […]
The amount of entrapped tempamine of liposomes prepared according to Example 2 was determined by the following procedure. First, the total tempamine in the post-loading liposome preparation (TMNmix) was measured. Then, the amount of tempamine in the post-loading liposome preparation in the presence of potassium ferricyanide, an EPR broadening agent that eliminates the signal of free (non-liposomal) tempamine, was measured. […] Then the total temparifine after releasing it from liposomes by nigericin (TMNnigencia) was measured. […]
The percent encapsulation and the quenching factor were calculated as follows: […]

[2] = Pharmacokinetics and biodistribution in C26 tumor-bearing BALB/c mice; format: in vivo
Procedure: The pharmacokinetics and biodistribution of liposome-entrapped tempamine and of free tempamine were determined in healthy and in tumor-bearing mice. […] The liposome formulation included a lipid label to allow analysis of the distribution of the liposome lipids. The tempamine levels in blood and tissues were measured using the EPR technique set forth in the Methods section.
8 to 12-week-old BALB/c female mice, obtained through the Animal Breeding House of the Hebrew University (Jerusalem, Israel), were used throughout the study. Animals were housed at Hadassah Medical Center with food and water ad libitum. All procedures were in accordance with the standards required by the Institutional Animal Care and Use Cornmittee of the Hebrew University and Hadassah Medical Organization. Each mouse was injected with one inoculum of tumor cells (1×10^6 C26 cells) subcutaneously into the left flank. […] Phospholipid dose was 11 mg (14.7 μmole)/mouse (377 mg (514 μmole)/kg body weight). At 1, 4, 8, 24, and 48 hours after the injection, the animals were anesthetized with ether inhalation, bled by eye enucleation, and immediately sacrificed for removal of liver, lung, spleen, kidney, and tumor. Each time point consisted of 3 mice. Plasma was separated by centrifugation.
To measure the total tempamine concentration (encapsulated and free) in the organs, the liposomes were solubilized by homogenization in a Polytron homogenizer (Kinematica, Lutzern, Switzerland) in 2% Triton X-100 (1:2, organ:Triton X-100 solution). The homogenized mixture was cooled and heated several times to destroy the lipid membrane (Barenholz, Y., et al., in LIPOSOME TECHNOLOGY, G. Gregoriadis (Ed.), 2nd Edn., Vol. I, CRC Press, Boca Raton, pp. 527-616, (1993)). The plasma samples were mixed 1:1 with 2% Triton X-100 to give the 1% Triton X-100 in the tested sample and also cooled and heated several times. These conditions were effective to achieve a release of all entrapped tempamine from intact liposomes.
For deterrmination of the total concentration of nitroxide+hydroxylamine, potassium ferricyanide at a final concentration of 2-3 mM (depending on the tested tissue) was added to all the samples (plasma and organ homogenates) to oxidize the hydroxylamine to intact nitroxide.
From the samples prepared as described above in section F, duplicates of 100 μl were burned in a Sample Oxidizer (Model 307, Packard Instrument Co., Meridien, Conn.) and left overnight in a dark, cool place. The samples were then measured by β-counting (KONTRON Liquid Scintillation Counter).

[3] = n-octanol/water partition coefficient (Kp); format: physicochemical; settings: ammonium sulfate 0 mM; TMN 20 μmole

CC1(C)CC(N)CC(C)(C)N1[O] [tempamine, 2,2,6,6-tetramethylpiperidine-4-amino-1-oxyl]
% Encapsulation ± S.D. ([1]; liposomes with NH4+ gradient): 84.1 ± 8.4^3% | % Encapsulation ± S.D. ([1]; liposomes without NH4+ gradient): 6 ± 0.6% | concentration at 4 h ([2]; female, BALB/c, mouse, intravenous, 18 mg/kg, free tempamine, 4 hour time point, read-out: tempamine level in other organs (detection minimum)): < 100 nM | AUC ([2]; female, BALB/c, mouse, plasma, iv, tumor-bearing mice, 18 mg/kg i.v.): 170 ± 5 µg·h/mL | clearance ([2]; female, BALB/c, mouse, plasma, iv, tumor-bearing mice, 18 mg/kg i.v., read-out: CL (ml/h), clearance rate (converted)): 3.2 mL/h | half-life ([2]; female, BALB/c, mouse, plasma, iv, tumor-bearing mice, 18 mg/kg i.v., read-out: T1/2 (h), blood circulation half-life (converted)): 0.15 ± 0.009 h | Vd ([2]; female, BALB/c, mouse, plasma, iv, tumor-bearing mice, 18 mg/kg i.v., read-out: Vss (ml), volume of distribution): 55 ± 15.7 mL | tempamine in liver and spleen ([2]; free tempamine, 1 hour and 4 hours after injection): traces | half-life of tempamine in plasma ([2]; mouse plasma): several minutes | n-octanol/aqueous phase (Kp), pH 4 [3]: 0.111 | n-octanol/aqueous phase (Kp), pH 10.6 [3]: 2.331
